Measured values: PubChem BioAssay (NCI)
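Values below derive from 48-hour exposures of cells grown in 96-well plates, with endpoints linearly interpolated between the two concentrations bracketing the appropriate inhibition level. Abbreviation: GI50, concentration required for 50% inhibition of growth. TGI marks complete inhibition of growth.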 Where a SMILES comes first, the peptide text is derived from it. The star is where a group is joined. Boc = CC(C)(C)OC(=O)*; OBn = c1ccc(CO*)cc1

Assays:
Test in all cases: NCI-60 cell line screen, 48 h
OVCAR-4 ovarian = system: OVCAR-4 ovarian
SN12C renal = system: SN12C renal
SNB-19 CNS = system: SNB-19 CNS
SK-MEL-28 melanoma = system: SK-MEL-28 melanoma
UO-31 renal = system: UO-31 renal
NCI/ADR-RES ovarian = system: NCI/ADR-RES ovarian
SK-MEL-5 melanoma = system: SK-MEL-5 melanoma
HT29 colon = system: HT29 colon
A498 renal = system: A498 renal
TK-10 renal = system: TK-10 renal

Structure (SMILES)	TGI (OVCAR-4 ovarian)	TGI (SN12C renal)	TGI (SNB-19 CNS)	TGI (SK-MEL-28 melanoma)	TGI (UO-31 renal)	TGI (NCI/ADR-RES ovarian)	TGI (SK-MEL-5 melanoma)	TGI (HT29 colon)	TGI (A498 renal)	TGI (TK-10 renal)	GI50 (SN12C renal)	GI50 (SNB-19 CNS)	GI50 (A498 renal)	GI50 (UO-31 renal)	GI50 (NCI/ADR-RES ovarian)	GI50 (SK-MEL-5 melanoma)	GI50 (HT29 colon)
CCOC(=O)C(NC(=O)CC)(Nc1ccc(S(=O)(=O)Nc2onc(C)c2C)cc1)C(F)(F)F (configuration not stated)	> 100 µM	> 100 µM	> 100 µM	> 100 µM	> 100 µM	> 100 µM	> 100 µM	> 100 µM	–	–	–	–	–	–	–	–	–
O=S(=O)(c1ccc(-c2nnc(-c3ccc(F)cc3)o2)cc1)c1ccc(-c2nnc(-c3ccc(F)cc3)o2)cc1	> 100 µM	> 100 µM	> 100 µM	–	> 100 µM	> 100 µM	> 100 µM	> 100 µM	58.6 µM	–	–	–	–	–	–	–	–
COc1ccc2c(c1)OCCc1cn[nH]c1-2	> 100 µM	> 100 µM	> 100 µM	> 100 µM	> 100 µM	> 100 µM	> 100 µM	> 100 µM	86.1 µM	–	–	–	–	–	–	–	–
C[S+](C)CC1OC(n2cnc3c(N)ncnc32)C(O)C1O (configuration not stated)	> 225 µM	> 225 µM	> 225 µM	> 225 µM	> 225 µM	> 225 µM	> 225 µM	> 225 µM	> 225 µM	–	–	–	–	–	–	–	–
Cc1ccc(S(=O)(=O)NC(=O)NC(CCCCN=C(N)N)C(=O)O)cc1 (configuration not stated)	> 100 µM	> 100 µM	> 100 µM	> 100 µM	> 100 µM	> 100 µM	> 100 µM	–	–	> 100 µM	–	–	–	–	–	–	–
O=C1CC(C(CC(=O)c2ccccc2)c2ccccc2)C(=O)c2ccccc2N1 (configuration not stated)	–	> 100 µM	> 100 µM	–	40.4 µM	75.5 µM	> 100 µM	> 100 µM	> 100 µM	–	–	–	–	–	–	–	–
Cc1ccc(N(O)C(C)(C)C)cc1	> 100 µM	> 100 µM	> 100 µM	> 100 µM	> 100 µM	> 100 µM	> 100 µM	> 100 µM	> 100 µM	–	–	–	–	–	–	–	–
Cc1cccc2nc3c(=O)[nH]c(=O)nc-3n(C)c12	> 100 µM	> 100 µM	> 100 µM	> 100 µM	–	> 100 µM	> 100 µM	> 100 µM	–	> 100 µM	–	–	–	–	–	–	–
CC(=O)OC12c3ccccc3C(c3ccccc31)C1C(=O)N(c3ccccn3)C(=O)C12 (configuration not stated)	> 100 µM	> 100 µM	> 100 µM	> 100 µM	57.9 µM	> 100 µM	> 100 µM	> 100 µM	–	> 100 µM	–	–	–	–	–	–	–
COC(=O)C(=O)C(C(=O)C(=O)Nc1cccc([N+](=O)[O-])c1)c1nc2ccc(Cl)cc2[nH]c1=O (configuration not stated)	> 100 µM	> 100 µM	> 100 µM	> 100 µM	> 100 µM	> 100 µM	> 100 µM	> 100 µM	–	> 100 µM	–	–	–	–	–	–	–
CC1(C)CC2(C)CC1CC2(O)c1ccccc1 (configuration not stated)	> 100 µM	> 100 µM	> 100 µM	> 100 µM	> 100 µM	–	> 100 µM	> 100 µM	> 100 µM	> 100 µM	–	–	–	–	–	–	–
Oc1ccccc1C1C=C(c2ccccc2)NC(N2CCCCC2)=C1c1nc2ccccc2[nH]1 (configuration not stated)	30.7 µM	29.7 µM	28.7 µM	30.6 µM	23.7 µM	34 µM	27 µM	29.3 µM	–	34.3 µM	–	–	–	–	–	–	–
CC(C)CC(NC(=O)OC(C)(C)C)C(=O)NC(CC(=O)OCc1ccccc1)C(=O)OCc1ccccc1 (stereo not drawn) (Boc-Leu-Asp(OBn)-OBn; configuration not given here)	–	50.9 µM	99.5 µM	–	75 µM	> 100 µM	57.3 µM	> 100 µM	> 100 µM	60.9 µM	–	–	–	–	–	–	–
COc1ccc(C2OCCN2C)cc1 (configuration not stated)	> 100 µM	–	> 100 µM	–	> 100 µM	> 100 µM	> 100 µM	> 100 µM	> 100 µM	> 100 µM	–	–	–	–	–	–	–
N#C/C(=C\c1ccc([N+](=O)[O-])s1)c1nc2cc(Cl)ccc2s1	–	1.43 µM	> 100 µM	–	2.8 µM	6.07 µM	0.955 µM	> 100 µM	> 100 µM	–	0.296 µM	1.58 µM	3.56 µM	0.602 µM	1.06 µM	0.314 µM	3.29 µM
COCC1OC(S(=O)(=O)c2ccccc2)C(O)C(OC)C1OC (configuration not stated)	> 100 µM	> 100 µM	> 100 µM	> 100 µM	> 100 µM	> 100 µM	> 100 µM	> 100 µM	–	> 100 µM	–	–	–	–	–	–	–
CS(=O)(=O)c1nc(-c2cc3c(c(S(C)(=O)=O)n2)CCC3)cc2c1CCCC2	> 100 µM	> 100 µM	> 100 µM	> 100 µM	> 100 µM	> 100 µM	> 100 µM	> 100 µM	–	> 100 µM	–	–	–	–	–	–	–
CN(C)CCNC(=O)c1cccc2cc3cc(O)ccc3nc12	6.58 µM	4.65 µM	3.53 µM	4.65 µM	–	11.4 µM	2.48 µM	4.95 µM	2.42 µM	–	–	–	–	–	–	–	–
O=NN(CCF)C(=O)NC1CC2CCC1C2 (configuration not stated)	> 100 µM	> 100 µM	> 100 µM	> 100 µM	> 100 µM	> 100 µM	> 100 µM	> 100 µM	> 100 µM	–	–	–	–	–	–	–	–
